Test results published in patent US20250296971A1, “GASTRIC INHIBITORY PEPTIDE RECEPTOR LIGANDS” (priority 2021, published 2025).
*1 amine or outer side, *2 acyl side, *3 side chain or, on linkers, in order; H or OH if unused. Where a SMILES comes first, the peptide text is derived from it. Bridges are numbered along the chain shown (N, C = ends). Side-chain parts run from the residue outwards. [ ]: non-standard residue; d: D form. The star is where a group is joined. X3 = O=C(O)CN1CCN(CC(=O)O)CCN(CC(=O)NCCCOCCOCCOCCCN*)CCN(CC(=O)O)CC1; NH(1-deoxy-D-glucityl) = OC[C@@H](O)[C@@H](O)[C@H](O)[C@@H](O)CN*; DOTA = O=C(O)CN1CCN(CC(=O)O)CCN(CC(=O)*)CCN(CC(=O)O)CC1; Trp(5-Cl) = N[C@@H](Cc1c[nH]c2ccc(Cl)cc12)C(=O)O; Pyridine(2,6-diCH2) = c1cc(C[*:1])nc(C[*:2])c1; Pro(4R-NH2) = N[C@H]1CN[C@H](C(=O)O)C1; Glutaryl = O=C(CCCC(=O)[*:2])[*:1]; X7 = c1cc(CSCCN[*:2])cc(C[*:1])c1; Cya = N[C@@H](CS(=O)(=O)O)C(=O)O; Hyp = O=C(O)[C@@H]1C[C@@H](O)CN1; X1 = O=C(CN1CCC(N[*:1])CC1)[*:2]; Suc = O=C(CCC(=O)[*:2])[*:1]; Tle = CC(C)(C)[C@H](N)C(=O)O; Api = NC1(C(=O)O)CCNCC1; Thp = NC1(C(=O)O)CCOCC1; Nleu = CC(C)CNCC(=O)O

biological target: T1, GIPR (CHO-K1-hGIPR cells) (Homo sapiens, UniProt P48546); test: FACS binding assay; settings: competition with 20 nM GIP-057, 4° C., 1 hour, read-out: pIC50 Category (converted)
T1 construct: host or cells: CHO-K1
T1 sequence (P48546 22-466): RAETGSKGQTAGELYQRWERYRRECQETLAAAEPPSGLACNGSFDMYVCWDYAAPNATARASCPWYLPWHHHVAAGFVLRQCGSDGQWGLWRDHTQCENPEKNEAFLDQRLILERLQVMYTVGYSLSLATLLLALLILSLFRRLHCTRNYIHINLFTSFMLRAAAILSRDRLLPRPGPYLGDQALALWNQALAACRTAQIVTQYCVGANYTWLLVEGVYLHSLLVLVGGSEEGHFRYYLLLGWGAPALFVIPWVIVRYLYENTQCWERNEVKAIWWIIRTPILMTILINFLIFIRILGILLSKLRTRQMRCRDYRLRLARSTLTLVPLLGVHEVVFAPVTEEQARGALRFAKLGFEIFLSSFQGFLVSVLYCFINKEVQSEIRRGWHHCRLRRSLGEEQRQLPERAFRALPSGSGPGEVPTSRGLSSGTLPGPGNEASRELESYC
In short: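 Peptide binding read by flow cytometry as APC-channel median fluorescence, fitted with a four-parameter logistic to yield EC50 or IC50. Cells were hGIPR-transfected CHO-K1 in PBS with 1% FCS, detected with 1 μg/mL APC-streptavidin, 30 min on ice.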

With CC[C@H](C)[C@@H]1NC(=O)[C@H](CC(C)C)NC(=O)C2(CCN(C(=O)CCCC(=O)NC[C@H](O)[C@@H](O)[C@H](O)[C@H](O)CO)CC2)NC(=O)[C@@H](NC(=O)[C@@H](CC(C)C)NC(=O)[C@H](CCC(=O)O)NC(=O)[C@@H]2C[C@@H](O)CN2C(=O)[C@H](Cc2c[nH]c3ccc(Cl)cc23)NC(=O)[C@H](Cc2c[nH]c3ccccc23)NC(=O)CCC(=O)O)CSCc2cccc(n2)CSC[C@@H](C(=O)NC2CCN(CC(=O)N[C@@H](CCCCNC(=O)CN3CCN(CC(=O)O)CCN(CC(=O)O)CCN(CC(=O)O)CC3)C(N)=O)CC2)NC1=O [GIP-073, HO-Succinyl-Trp-5Clw-Hyp-Glu-leu-[Cys(2Lut)-Apc(AGLU-Glutar)-Leu-Ile-Cys]-APAc-Lys(DOTA)-NH2] (Suc-W[Trp(5-Cl)][Hyp]E[dL]C[Api]([Glutaryl-NH(1-deoxy-D-glucityl)])LIC[X1]K(DOTA)-NH2; linker 6-10 via Pyridine(2,6-diCH2)) as the molecule, how does the IC50 read?
The IC50 was under 0.01 µM.

For CC[C@H](C)[C@@H]1NC(=O)[C@H](CC(C)C)NC(=O)C2(CCN(C(=O)CN3CCN(CC(=O)O)CCN(CC(=O)O)CCN(CC(=O)O)CC3)CC2)NC(=O)[C@@H](NC(=O)[C@@H](CC(C)C)NC(=O)[C@H](CCC(=O)O)NC(=O)[C@@H]2CCCN2C(=O)[C@H](Cc2c[nH]c3ccc(Cl)cc23)NC(=O)[C@H](Cc2c[nH]c3ccccc23)NC(=O)[C@H](CC(=O)O)NC(=O)CCC(=O)NCCCOCCOCCOCCCNC(=O)CN2CCN(CC(=O)O)CCN(CC(=O)O)CCN(CC(=O)O)CC2)CSCc2cccc(c2)CSCCNC1=O [GIP-053, DOTA-Ttds-Asp-Trp-5Clw-Pro-Glu-leu-[Cys(3MeBn)-Apc(DOTA)-Leu-Ile-AET]] ({X3-Suc}-DW[Trp(5-Cl)]PE[dL]C[Api](DOTA)LI; linker 7-C via X7), which IC50 is on record?
Its IC50 is under 0.01 µM.

CC[C@H](C)[C@@H]1NC(=O)[C@H](CC(C)C)NC(=O)C2(CCOCC2)NC(=O)[C@@H](NC(=O)[C@@H](CC(C)C)NC(=O)[C@H](CCC(=O)O)NC(=O)[C@@H]2C[C@@H](O)CN2C(=O)[C@H](Cc2c[nH]c3ccc(Cl)cc23)NC(=O)[C@H](Cc2c[nH]c3ccccc23)NC(=O)[C@H](CS(=O)(=O)O)NC(C)=O)CSCc2cccc(n2)CSC[C@@H](C(N)=O)NC1=O [GIP-189, Ac-Cya-Trp-5Clw-Hyp-Glu-leu-[Cys(2Lut)-Thp-Leu-Ile-Cys]-NH2] (Ac-[Cya]W[Trp(5-Cl)][Hyp]E[dL]C[Thp]LIC-NH2; linker 7-11 via Pyridine(2,6-diCH2)) was tested. Which IC50 did it give?
Its IC50 is under 0.01 µM.

How did the IC50 turn out when CC(=O)N[C@@H](CC(=O)O)C(=O)N[C@@H](Cc1c[nH]c2ccccc12)C(=O)N[C@@H](Cc1c[nH]c2ccc(Cl)cc12)C(=O)N1C[C@H](O)C[C@H]1C(=O)N[C@@H](CCC(=O)O)C(=O)N[C@H](CC(C)C)C(=O)N[C@H]1CSCc2cccc(n2)CSC[C@@H](C(N)=O)NC(=O)[C@H](C(C)(C)C)NC(=O)[C@H](CC(C)C)NC(=O)C2(CCOCC2)NC1=O [GIP-238, Ac-Asp-Trp-5Clw-Hyp-Glu-leu-[Cys(2Lut)-Thp-Leu-Tle-Cys]-NH2] (Ac-DW[Trp(5-Cl)][Hyp]E[dL]C[Thp]L[Tle]C-NH2; linker 7-11 via Pyridine(2,6-diCH2)) was run?
Its IC50 is under 0.01 µM.

CC[C@H](C)[C@@H]1NC(=O)[C@H](CC(C)C)NC(=O)C2(CCOCC2)NC(=O)[C@@H](NC(=O)[C@@H](CC(C)C)NC(=O)[C@H](CCC(=O)O)NC(=O)CN(CC(C)C)C(=O)[C@H](Cc2c[nH]c3ccc(Cl)cc23)NC(=O)[C@H](Cc2c[nH]c3ccccc23)NC(=O)[C@H](CC(=O)O)NC(C)=O)CSCc2cccc(n2)CSC[C@@H](C(N)=O)NC1=O [GIP-184, Ac-Asp-Trp-5Clw-Nleu-Glu-leu-[Cys(2Lut)-Thp-Leu-Ile-Cys]-NH2] (Ac-DW[Trp(5-Cl)][Nleu]E[dL]C[Thp]LIC-NH2; linker 7-11 via Pyridine(2,6-diCH2)) was tested. Which IC50 did it give?
The IC50 was under 0.01 µM.

Which IC50 does the source give for CC[C@H](C)[C@@H]1NC(=O)[C@H](CC(C)C)NC(=O)C2(CCN(C(=O)CCCC(=O)NC[C@H](O)[C@@H](O)[C@H](O)[C@H](O)CO)CC2)NC(=O)[C@@H](NC(=O)[C@@H](CC(C)C)NC(=O)[C@H](CCC(=O)O)NC(=O)[C@@H]2C[C@@H](N)CN2C(=O)[C@H](Cc2c[nH]c3ccc(Cl)cc23)NC(=O)[C@H](Cc2c[nH]c3ccccc23)NC(=O)[C@H](CC(=O)O)NC(=O)CN2CCC(NC(=O)CN3CCN(CC(=O)O)CCN(CC(=O)O)CCN(CC(=O)O)CC3)CC2)CSCc2cccc(n2)CSC[C@@H](C(=O)NC2CCN(CC(=O)N[C@H](CCC(=O)NC[C@H](O)[C@@H](O)[C@H](O)[C@H](O)CO)C(N)=O)CC2)NC1=O [GIP-012, DOTA-APAc-Asp-Trp-5Clw-Hyp-Glu-leu-[Cys(2Lut)-Apc(AGLU-Glutar)-Leu-Ile-Cys]-APAc-glu(AGLU)-NH2] ({DOTA}-[X1]DW[Trp(5-Cl)][Pro(4R-NH2)]E[dL]C[Api]([Glutaryl-NH(1-deoxy-D-glucityl)])LIC[X1][dE](NH(1-deoxy-D-glucityl))-NH2; linker 8-12 via Pyridine(2,6-diCH2)) here?
Its IC50 is under 0.01 µM.

For CCOCCOCCOCCOCCOCCOCCOCCOCCOCCOCCOCCOCCOCCOCCOCCOCCOCCOCCOCCOCCOCCOCCOCCOCCOCCOCCOCCOCCOCCOCCOCCOCCOCCOCCOCCOCCOCC(=O)NC1CCN(CC(=O)N[C@@H](CC(=O)O)C(=O)N[C@@H](Cc2c[nH]c3ccccc23)C(=O)N[C@@H](Cc2c[nH]c3ccc(Cl)cc23)C(=O)N2C[C@H](N)C[C@H]2C(=O)N[C@@H](CCC(=O)O)C(=O)N[C@H](CC(C)C)C(=O)N[C@H]2CSCc3cccc(n3)CSC[C@@H](C(=O)NC3CCN(CC(=O)N[C@H](CCC(=O)NC[C@H](O)[C@@H](O)[C@H](O)[C@H](O)CO)C(N)=O)CC3)NC(=O)[C@H]([C@@H](C)CC)NC(=O)[C@H](CC(C)C)NC(=O)C3(CCN(C(=O)CN4CCN(CC(=O)O)CCN(CC(=O)O)CCN(CC(=O)O)CC4)CC3)NC2=O)CC1 [GIP-042, MeO36PEG-APAc-Asp-Trp-5Clw-Tap-Glu-leu-[Cys(2Lut)-Apc(DOTA)-Leu-Ile-Cys]-APAc-glu(AGLU)-NH2], which IC50 is on record?
Its IC50 is 0.01 to 0.0794 µM.
